Measurements: paper PMC7011998 (Journal of Enzyme Inhibition and Medicinal Chemistry, 2017)

Columns and labels:
[1] = Dissolution of sulfonamides in clove oil; details: concentration 5 mg/ml in clove oil
Method: Oil phase was prepared by sulfonamides dissolution in the clove oil. A 5 mg of drug was weighted in an eppendorf and 1 ml of clove oil was added. The tube was agitated for 1 min for obtaining of the drug solution (5 mg/ml). Aqueous phase were prepared by adding 1 g of Pluronic F127® in 8 mg of water. Then 1 ml of oil phase (drug dissolved in clove oil) was added to 9 ml of aqueous phase (Pluronic F127 in water) under constant ultrasound homogenization (amplitude 80%, continuous cycle n. 1) during 5 min in an ice bath at 5 °C to prevent heating of the dispersion.
The NEs were produced with 10% of oil phase.

Trypanosoma cruzi = test system: Trypanosoma cruzi; parameters: method as in PMID 23815159; details: unformulated sulfonamides; cited from earlier work
[2] = test system: T. cruzi Dm28c strain epimastigotes; test: Flow cytometry annexin V-FITC / propidium iodide, Dm28c; assay type: cell-based, Trypanosoma cruzi; details: 32 μM
Method: The analysis of the externalization of phosphatidylserine was performed using annexin V fluoresceine isothiocyanate (AV FITC) and propidium iodide, PI (Santa Cruz Biotechonology, Santa Cruz, CA). The cells were analysed by flow cytometry (FACS Calibur-Beckton-Dickinson), 50,000 events were analysed by the Paint-a-gate program and values were expressed as percentage of cells positive for a given marker relative to the total number of cells: FITC-labelled cells […], PI-labelled cells […], and cells with ruptured cell membrane (necrotic cells will be double-labelled).

[3] = test system: T. cruzi Y strain epimastigotes; test: Growth inhibition of T. cruzi epimastigotes, resazurin microdilution, Y strain; assay type: cell-based; details: Trypanosoma cruzi; TcY epimastigotes, drug nanoemulsions; read-out: IC90 (concentration which reduced the proliferation of epimastigotes by 90%)
Method: (§1) Epimastigote forms of the T. cruzi clone Dm28c ([…])[31] and Y([…])[32]^,[33] strains obtained from the Laboratory of Cellular Ultrastructure (both laboratories of the Oswaldo Cruz Foundation, Rio de Janeiro, Brazil) were used. The parasites were maintained in PBHIL medium supplemented with 10% bovine serum (FBS) at 28 °C[34].
(§2) The Minimum inhibitory concentration (MIC) for epimastigotes was performed with resazurin as an indicator of cellular metabolic function and it was determined as the lowest concentration capable of inhibiting in vitro growth of the parasites.

[4] = test system: T. cruzi clone Dm28c epimastigotes; test: Growth inhibition of T. cruzi epimastigotes, resazurin microdilution, Dm28c; assay type: cell-based, Trypanosoma cruzi
Method: as §1, §2

Row | SMILES | dissolution in clove oil [1] | in vivo anti-trypanosomal effects (Trypanosoma cruzi) | other results
1 | NS(=O)(=O)c1nnc(NC(=O)Cc2ccc(Cl)cc2)s1 [5B] | dissolved efficiently | did not show in vivo anti-trypanosomal effects | 
2 | NS(=O)(=O)c1ccc(CCNC(=O)Cc2ccccc2Br)cc1 [3W] | dissolved efficiently | did not show in vivo anti-trypanosomal effects | 
3 | NS(=O)(=O)c1ccc(NC(=O)Cc2ccc(Cl)cc2)c(F)c1 [3F] | dissolved efficiently | did not show in vivo anti-trypanosomal effects | 
4 | NS(=O)(=O)c1nnc(NC(=O)Cc2ccccc2Br)s1 [5C] | dissolved efficiently | did not show in vivo anti-trypanosomal effects | 
5 | NS(=O)(=O)c1ccc(NC(=O)Cc2ccccc2Br)c(F)c1 [3G] | dissolved efficiently | did not show in vivo anti-trypanosomal effects | 
6 | COc1ccc(CC(=O)Nc2nnc(S(N)(=O)=O)s2)cc1 [5D] | dissolved efficiently | did not show in vivo anti-trypanosomal effects | 
7 | O=C(Cn1ccnc1[N+](=O)[O-])NCc1ccccc1 [BZN, 2-nitro-imidazole-(N-benzil-2-nitro-1imidazoleacetamide)] |  |  | cell death by necrosis (propidium iodide) [2]: 51.16%; IC90 [3]: > 128 µM; IC50 ([4]; Trypanosoma cruzi, read-out: IC50 (concentration which reduced the proliferation of epimastigotes by 50%), Tc DM28c epimastigotes, drug nanoemulsions): 20.6 µM; IC90 ([4]; Trypanosoma cruzi, Tc DM28c epimastigotes, drug nanoemulsions, read-out: IC90 (concentration which reduced the proliferation of epimastigotes by 90%)): > 128 µM; SI (selectivity index) ([4]; both strains (DM28c and Y), CC50 RAW / IC50): 5–5.8
